Measurements published in US20050250801A1, “Method of treating cancer with azaspirane compositions” (priority 2003, published 2005).
pIC50: −log10 of the molar value.

Tests used:
[1] = test system: CaCo-2 cells; experiment: Inhibition of proliferation of CaCo-2 cells (WST-1, Example 8); assay type: cell-based; conditions: Homo sapiens, 12 hours; for inhibition at 5 µM: read-out: % Inhibition of Proliferation at 5 μM Compound
Experimental: The effect of N,N,-diethyl-8,8-dipropyl-2-azaspiro[4,5]decane-2-propanamine dimaleate (Compound 1) and other analogs (structures shown in Table 7) on proliferation of CaCo-2, a human colon carcinoma cell line, were evaluated in the following manner. Cell proliferation was measured by WST-1 dye conversion to Formazan assay using a proliferation kit from BioVision, CA. The procedure used was essentially the same as described in the manufacture's instructions. Briefly, cells were grown for 7 days until they formed semi-confluent monolayers. On day 7, cells were trypsinized and re-suspended in 96-well plates at a concentration of approximately 50,000 cells/well. […] A solution of 10 μl of WST-1 dye per well was added and plates were read after 4 hours at 440 and 600 nm using an ELISA plate reader. The absorbance at 440-600 nm is directly proportion to the number of proliferating cells. All samples were measured in duplicate and results were expressed as an average of two determinations.

[2] = test system: chorioallantoic membrane (CAM); experiment: Anti-angiogenesis CAM assay; assay type: in vivo, White Leghorn eggs; conditions: Dose per egg 100 μg; 48 hour exposure; ten eggs
Experimental: The dosing was effected by pipetting 40 μl of the indicated solution onto a 13 mm round Thermanox® coverslip and allowing it to air dry. After the material appeared dry, the coverslip was placed onto the chorioallantoic membrane (CAM) of each egg insuring contact of the dried test article with the CAM. After dosing, the eggs were returned to the incubator for approximately 48 hours. Following the 48 hour exposure period, the eggs were removed from the incubator, observed for viability, and the exposed area under the coverslip was examined for loss of vasculature.

SMILES | inhibition at 5 µM [1] | pIC50 [1] | Dead Eggs [2]
CCCCC1(CC)CCC2(CCN(CCCN(C)C)C2)CC1 (stereo not shown) [K] | 81% | ~5.60 | 
CN(C)CCCN1CCC2(CCC(C(C)(C)C)CC2)C1 (stereo not shown) [Compound C] | 15% | < 4.70 | 
CCCCCCCCCCC1CCC2(CC1)CCN(CCCN(C)C)C2 (stereo not shown) [H] | 73% | ~5.46 | 
CN(C)CCCN1CCC2(CCCCC2)CC1 [D] | 0% | < 4.70 | 
CN(C)CCCN1CCC2(CCOCC2)C1 [B] | 0% | < 4.70 | 
CN(C)CCCN1CCC2(CCC(C(C)(C)C)CC2)CC1 [A] | 45% | ~4.70 | 
CCCC1(CCC)CCC2(CCN(CCCCCCN(C)C)C2)CC1 [L] | 76% | ~5.46 | 
CCCCC1(CCCC)CCC2(CCN(CCCN(C)C)C2)CC1 [J] | 84% | ~5.60 | 
CCCC1(CCC)CCC2(CCN(CCCN3CCCCC3)C2)CC1 [M] | 67% | ~5.40 | 
CCC1(CC)CCC2(CCN(CCCN(C)C)C2)CC1 [F] | 35% | < 4.70 | 
O=C1CCC(N2C(=O)c3ccccc3C2=O)C(=O)N1 (stereo not shown) [Thalidomide, reference compound] |  |  | 0
CCCCCC1(CCCCC)CCC2(CCN(CCCN(C)C)CC2)CC1 [G] | 86% | ~5.60 | 
CN(C)CCCN1CCC2(CCC(C)(C)CC2)C1 [E] | 0% | < 4.70 | 
